“And” between values parts separate entries of the source, which are not always exact repeats. Equal values may be shown once.
Target: α-glucosidase
Test: α-glucosidase inhibitory activity assay
Type: biochemical
Conditions: alpha-glucosidase 1 U/ml, P-NPG substrate, 37° C., pH 6.8
Experimental: An assay to measure α-glucosidase inhibitory activity of extract and fractions was carried out according to the standard method with minor modification. In a 96-well plate, reaction mixture containing 50 μl phosphate buffer (100 mM, pH=6. 8), 10 μl alpha-glucosidase (1 U/ml), and 20 μl of varying concentrations of extract and fractions (0.1, 0.2, 0.3, 0.4, and 0.5 mg/ml) was preincubated at 37° C. for 15 min. Then, 20 μl P-NPG (5 mM) were added as a substrate and incubated further at 37° C. for 20 min. The reaction was stopped by adding 50 μl Na2 CO3 (0.1 M). The absorbance of the released p-nitrophenol was measured at 405 nm using Multiplate Reader. Acarbose at various concentrations (0.1-0.5 mg/ml) was included as a standard. Without test substance was set up in parallel as a control and each experiment was performed in triplicates. The results were expressed as percentage inhibition, which was calculated using the formula,
Inhibitory activity (%)=(1−As/Ac)×100 • where, As is the absorbance in the presence of test substance and Ac is the absorbance of control.

With `O=C(O[C@@H]1Cc2c(O)cc(O)cc2O[C@@H]1c1cc(O)c(O)c(O)c1)c1cc(O)c(O)c(O)c1` [EGCG, epigallocatechin gallate] the “IC50 values of α-glucosidase” value was 138 µg/mL and 138.6 µg/mL.

Reference: patent US20250152651A1, “COMPOSITIONS AND METHODS FOR EXTRACTING COMPOUNDS” (Unicity Properties, Inc., priority 2023, published 2025)
